Reference: patent publication US20250368666A1, “INDAZOLE COMPOUNDS” (TYRA BIOSCIENCES, INC., priority 2022, published 2025)

Experiments:
[1] = system: KG-1 cell line (FGFR 1-fusion); assay: Cancer cell line cell viability assay (Cell Titer-Glo), 72 hr; type: cell-based; settings: Homo sapiens, KG-1, KG-1 cell line (FGFR1-fusion)
Summary of the method: (§1)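 5,000-20,000 cells/well o/n; cpd 9-pt 4x dil from 3 μM, n=3; 37° C/5% CO2; CTG 2.0 lumi; % DMSO ctrl; 4PL IC50.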

[2] = system: KATO-III cell line (FGFR2 amplification); assay: as above; type: cell-based; settings: Homo sapiens, KATO III
Summary of the method: as §1

[3] = system: RT112/84 cell line (FGFR3-fusion); assay: as above; type: cell-based; settings: Homo sapiens, RT112/84, RT112/84 cell line (FGFR3-fusion)
Summary of the method: as §1

FGFR3 (V555M) = molecular target: T1, FGFR3 (V555M) (Homo sapiens, UniProt P22607, V555M); assay: Kinase binding assay (kinase-tagged T7 phage, affinity beads, qPCR), Kd; settings: V555M mutant; read-out: FGFR3 (V555M) (Kd nM)
T1 construct: made in house; host or cells: E. coli (BL21-derived), T7 phage
T1 sequence (P22607 23-806 V555M): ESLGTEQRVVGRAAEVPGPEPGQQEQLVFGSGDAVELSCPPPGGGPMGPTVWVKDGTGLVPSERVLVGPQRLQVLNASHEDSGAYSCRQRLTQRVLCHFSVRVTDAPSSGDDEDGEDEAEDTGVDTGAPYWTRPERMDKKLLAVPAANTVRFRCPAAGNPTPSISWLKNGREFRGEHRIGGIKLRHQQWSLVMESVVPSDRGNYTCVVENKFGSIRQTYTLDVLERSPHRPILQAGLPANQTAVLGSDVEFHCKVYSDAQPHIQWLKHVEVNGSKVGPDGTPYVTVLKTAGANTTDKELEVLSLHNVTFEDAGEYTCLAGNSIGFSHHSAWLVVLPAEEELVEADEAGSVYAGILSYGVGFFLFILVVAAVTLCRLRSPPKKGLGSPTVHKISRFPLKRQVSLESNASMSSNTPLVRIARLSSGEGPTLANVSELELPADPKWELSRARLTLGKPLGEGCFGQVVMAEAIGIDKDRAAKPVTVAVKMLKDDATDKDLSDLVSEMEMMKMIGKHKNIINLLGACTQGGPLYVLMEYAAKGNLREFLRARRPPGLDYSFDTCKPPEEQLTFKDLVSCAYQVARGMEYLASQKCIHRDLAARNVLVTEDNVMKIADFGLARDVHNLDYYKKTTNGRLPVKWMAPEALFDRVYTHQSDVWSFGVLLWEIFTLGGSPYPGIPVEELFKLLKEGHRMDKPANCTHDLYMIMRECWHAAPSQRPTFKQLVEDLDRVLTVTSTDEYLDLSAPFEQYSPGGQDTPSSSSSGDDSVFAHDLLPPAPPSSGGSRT
Summary of the method: (§2)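 T7 phage displaying each kinase, grown in a BL21-derived E. coli host at 32° C until lysis, competed with test compound for biotinylated ligand immobilised on streptavidin beads. Bead-bound kinase was eluted and quantified by qPCR. Kd came from an 11-point 3-fold dilution series fitted to the Hill equation with slope fixed at −1.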

FGFR3 = molecular target: T2, FGFR3 (Homo sapiens, UniProt P22607); assay: as above; settings: read-out: FGFR3 (Kd nM)
T2 construct: made in house; host or cells: E. coli (BL21-derived), T7 phage
T2 sequence (P22607 23-806): as the sequence (P22607 23-806 V555M) above, with M533V counted along it
Summary of the method: as §2

FGFR4 = molecular target: T3, FGFR4 (Homo sapiens, UniProt P22455); assay: as above; settings: read-out: FGFR4 (Kd nM)
T3 construct: made in house; host or cells: E. coli (BL21-derived), T7 phage
T3 sequence (P22455 22-802): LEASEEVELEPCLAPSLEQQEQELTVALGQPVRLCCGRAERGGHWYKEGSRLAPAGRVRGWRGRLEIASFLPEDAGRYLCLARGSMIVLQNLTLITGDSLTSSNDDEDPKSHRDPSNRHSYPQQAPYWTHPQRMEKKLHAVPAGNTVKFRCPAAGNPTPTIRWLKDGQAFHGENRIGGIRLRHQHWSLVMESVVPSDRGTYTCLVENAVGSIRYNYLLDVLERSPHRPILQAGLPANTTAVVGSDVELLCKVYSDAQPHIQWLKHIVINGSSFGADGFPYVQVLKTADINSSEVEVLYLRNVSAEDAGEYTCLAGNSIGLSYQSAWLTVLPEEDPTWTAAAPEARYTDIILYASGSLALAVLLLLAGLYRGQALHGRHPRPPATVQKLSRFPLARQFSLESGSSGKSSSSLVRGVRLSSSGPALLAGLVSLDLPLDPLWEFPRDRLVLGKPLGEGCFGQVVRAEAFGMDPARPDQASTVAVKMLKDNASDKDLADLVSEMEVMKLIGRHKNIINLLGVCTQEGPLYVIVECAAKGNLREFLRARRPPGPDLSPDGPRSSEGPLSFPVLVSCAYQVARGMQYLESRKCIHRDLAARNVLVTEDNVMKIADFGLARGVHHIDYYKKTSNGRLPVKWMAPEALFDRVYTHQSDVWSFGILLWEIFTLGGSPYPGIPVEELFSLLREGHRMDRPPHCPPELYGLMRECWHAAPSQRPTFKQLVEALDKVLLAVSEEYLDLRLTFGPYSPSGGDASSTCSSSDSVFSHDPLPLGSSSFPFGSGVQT
Summary of the method: as §2

FGFR2 = molecular target: T4, FGFR2 (Homo sapiens, UniProt P21802); assay: as above; settings: read-out: FGFR2 (Kd nM)
T4 construct: made in house; host or cells: E. coli (BL21-derived), T7 phage
T4 sequence (P21802 22-821): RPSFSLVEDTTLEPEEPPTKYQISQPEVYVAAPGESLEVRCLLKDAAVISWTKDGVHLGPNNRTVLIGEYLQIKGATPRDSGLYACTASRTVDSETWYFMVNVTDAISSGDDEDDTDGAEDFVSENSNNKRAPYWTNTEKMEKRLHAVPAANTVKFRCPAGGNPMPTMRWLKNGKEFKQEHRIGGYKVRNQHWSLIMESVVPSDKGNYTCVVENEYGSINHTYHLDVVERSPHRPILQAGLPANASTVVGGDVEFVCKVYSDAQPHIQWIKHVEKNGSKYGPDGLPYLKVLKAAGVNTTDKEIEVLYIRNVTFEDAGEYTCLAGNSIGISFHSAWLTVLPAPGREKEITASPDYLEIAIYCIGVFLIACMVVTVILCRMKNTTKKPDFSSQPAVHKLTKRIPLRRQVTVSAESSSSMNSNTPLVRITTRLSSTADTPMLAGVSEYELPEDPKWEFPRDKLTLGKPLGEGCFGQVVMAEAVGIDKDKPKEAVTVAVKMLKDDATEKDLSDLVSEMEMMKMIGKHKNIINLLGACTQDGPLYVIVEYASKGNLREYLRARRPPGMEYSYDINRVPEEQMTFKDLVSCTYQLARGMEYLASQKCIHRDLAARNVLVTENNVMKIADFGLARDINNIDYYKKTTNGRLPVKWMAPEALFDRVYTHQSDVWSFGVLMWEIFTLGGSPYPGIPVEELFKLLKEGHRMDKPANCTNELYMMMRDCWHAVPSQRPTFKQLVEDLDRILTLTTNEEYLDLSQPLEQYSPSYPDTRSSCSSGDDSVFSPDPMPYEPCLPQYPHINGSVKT
Summary of the method: as §2

FGFR1 = molecular target: T5, FGFR1 (Homo sapiens, UniProt P11362); assay: as above; settings: read-out: FGFR1 (Kd nM)
T5 construct: made in house; host or cells: E. coli (BL21-derived), T7 phage
T5 sequence (P11362 22-822): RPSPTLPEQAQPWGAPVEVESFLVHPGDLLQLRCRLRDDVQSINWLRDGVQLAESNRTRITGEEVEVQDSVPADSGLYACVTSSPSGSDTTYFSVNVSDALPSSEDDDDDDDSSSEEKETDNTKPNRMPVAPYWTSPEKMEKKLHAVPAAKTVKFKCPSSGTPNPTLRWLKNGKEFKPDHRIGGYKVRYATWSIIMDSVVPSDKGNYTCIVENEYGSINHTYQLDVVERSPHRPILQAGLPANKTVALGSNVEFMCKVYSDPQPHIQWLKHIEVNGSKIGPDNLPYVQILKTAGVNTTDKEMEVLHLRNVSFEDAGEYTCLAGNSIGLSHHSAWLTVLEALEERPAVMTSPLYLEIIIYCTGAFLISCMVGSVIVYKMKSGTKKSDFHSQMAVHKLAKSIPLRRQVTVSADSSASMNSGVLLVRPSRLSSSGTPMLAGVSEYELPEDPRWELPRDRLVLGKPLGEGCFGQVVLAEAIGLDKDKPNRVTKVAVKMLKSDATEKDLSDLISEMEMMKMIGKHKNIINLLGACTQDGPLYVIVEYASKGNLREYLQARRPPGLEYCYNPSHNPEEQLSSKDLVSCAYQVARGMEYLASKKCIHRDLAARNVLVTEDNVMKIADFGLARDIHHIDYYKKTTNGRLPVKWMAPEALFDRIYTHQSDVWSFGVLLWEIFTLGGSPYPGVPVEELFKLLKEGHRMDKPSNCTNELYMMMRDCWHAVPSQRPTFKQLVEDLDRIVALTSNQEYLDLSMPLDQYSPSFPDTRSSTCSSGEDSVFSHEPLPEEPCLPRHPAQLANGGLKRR
Summary of the method: as §2

[4] = system: HuH7 cell line (FGF19 amplification); assay: Cancer cell line cell viability assay (Cell Titer-Glo), 120 hr; type: cell-based; settings: Homo sapiens, Huh-7
Summary of the method: as §1

[5] = system: MDA-MB-453 cell line (FGFR4-Y367C); assay: as above; type: cell-based; settings: Homo sapiens
Summary of the method: as §1

Compound	IC50 [1] [nM]	IC50 [2] [nM]	IC50 [3] [nM]	Kd (FGFR3 (V555M)) [nM]	Kd (FGFR3) [nM]	Kd (FGFR4) [nM]	Kd (FGFR2) [nM]	Kd (FGFR1) [nM]	IC50 [4] [nM]	IC50 [5] [nM]
CC[C@@H](C)NC1(C)CN(c2ncc(-c3n[nH]c4cc(OC)c(O[C@H](C)c5c(Cl)cncc5Cl)cc34)cc2C#N)C1 [Example 145, 5-[5-[(1R)-1-(3,5-dichloro-4-pyridyl)ethoxy]-6-methoxy-1H-indazol-3-yl]-2-[3-methyl-3-[[(1R)-1-methylpropyl]amino]aze-tidin-1-yl]pyridine-3-carbonitrile]	50 to 200	50 to 200	0.1 to 50	1 to 50	1 to 50	1 to 50	1 to 50	1 to 50	0.1 to 50	
CCCNC1(C)CN(c2ncc(-c3n[nH]c4cc(OC)c(O[C@H](C)c5c(Cl)cncc5Cl)cc34)cc2C#N)C1 [Example 146, 5-[5-[(1R)-1-(3,5-dichloro-4-pyridyl)ethoxy]-6-methoxy-1H-indazol-3-yl]-2-[3-methyl-3-(propylamino)azetidin-1-yl]pyridine-3-carbonitrile]	50 to 200	50 to 200	0.1 to 50	1 to 50	1 to 50	1 to 50	1 to 50	1 to 50	0.1 to 50	
C=CCNC1(C)CN(c2ncc(-c3n[nH]c4cc(OC)c(O[C@H](C)c5c(Cl)cncc5Cl)cc34)cc2C#N)C1 [Example 147, (R)-2-(3-(allylamino)-3-methylazetidin-1-yl)-5-(5-(1-(3,5-dichloropyridin-4-yl)ethoxy)-6-methoxy-1H-indazol-3-yl)nicotinonitrile]	50 to 200	50 to 200	0.1 to 50	1 to 50	1 to 50	1 to 50	1 to 50	1 to 50	0.1 to 50	
CC(C)CNC1(C)CN(c2ccc(-c3n[nH]c4ccc(O[C@H](C)c5c(Cl)cncc5Cl)cc34)nn2)C1 [Example 242, (R)-1-(6-(5-(1-(3,5-dichloropyridin-4-yl)ethoxy)-1H-indazol-3-yl)pyridazin-3-yl)-N-isobutyl-3-methylazetidin-3-amine]	50 to 200	50 to 200	0.1 to 50		1 to 50			1 to 50		200 to 1000
C[C@@H](Oc1ccc2[nH]nc(-c3cnc(N4CC(C)(NCC5CC5)C4)cc3F)c2c1)c1c(Cl)cncc1Cl [Example 243, (R)—N-(cyclopropylmethyl)-1-(5-(5-(1-(3,5-dichloropyridin-4-yl)ethoxy)-1H-indazol-3-yl)-4-fluoropyridin-2-yl)-3-methylazetidin-3-amine]	200 to 1000	200 to 1000	0.1 to 50		1 to 50			1 to 50		50 to 200
CC(C)NC1(C)CN(c2ccc(-c3n[nH]c4ccc(O[C@H](C)c5c(Cl)cncc5Cl)cc34)nn2)C1 [Example 244, (R)-1-(6-(5-(1-(3,5-dichloropyridin-4-yl)ethoxy)-1H-indazol-3-yl)pyridazin-3-yl)-N-isopropyl-3-methylazetidin-3-amine]	50 to 200	50 to 200	0.1 to 50		1 to 50			1 to 50		200 to 1000
CC(C)CN(C)C1(C)CN(c2ncc(-c3n[nH]c4ccc(O[C@H](C)c5c(Cl)cncc5Cl)cc34)cc2F)C1 [Example 245, (R)-1-(5-(5-(1-(3,5-dichloropyridin-4-yl)ethoxy)-1H-indazol-3-yl)-3-fluoropyridin-2-yl)-N-isobutyl-N,3-dimethylazetidin-3-amine]	> 1000	> 1000	50 to 200		1 to 50			50 to 300		> 1000
C[C@@H](Oc1ccc2[nH]nc(-c3cnc(N4CC(C)(N5CCS(=O)(=O)CC5)C4)c(C#N)c3)c2c1)c1c(Cl)cncc1Cl [Example 321, (R)-5-(5-(1-(3,5-dichloropyridin-4-yl)ethoxy)-1H-indazol-3-yl)-2-(3-(1,1-dioxidothio-morpholino)-3-methylazetidin-1-yl)nicotinonitrile]	200 to 1000	200 to 1000	50 to 200	1 to 50	1 to 50	1 to 50	1 to 50	1 to 50	0.1 to 50	
C[C@@H](Oc1ccc2[nH]nc(-c3cnc(N4CC(C)(NCCS(C)(=O)=O)C4)c(C#N)c3)c2c1)c1c(Cl)cncc1Cl [Example 325, 5-[5-[(1R)-1-(3,5-dichloro-4-pyridyl)ethoxy]-1H-indazol-3-yl]-2-[3-methyl-3-(2-methylsulfonylethyl-amino)azetidin-1-yl]pyridine-3-carbonitrile]	200 to 1000	50 to 200	50 to 200	1 to 50	1 to 50	1 to 50	1 to 50	1 to 50	0.1 to 50	
C[C@@H](Oc1ccc2[nH]nc(-c3cnc(N4CC(C)(N5CCP(C)(=O)CC5)C4)c(C#N)c3)c2c1)c1c(Cl)cncc1Cl [Example 328, (R)-5-(5-(1-(3,5-dichloropyridin-4-yl)ethoxy)-1H-indazol-3-yl)-2-(3-methyl-3-(4-methyl-4-oxido-1,4-azaphosphinan-1-yl)azetidin-1-yl)nicotinonitrile]	> 1000	200 to 1000	50 to 200	1 to 50	1 to 50	1 to 50	1 to 50	1 to 50	50 to 200	
COc1cc2[nH]nc(-c3cnc(N4CC(C)(NCP(C)(C)=O)C4)c(C#N)c3)c2cc1O[C@H](C)c1c(Cl)cncc1Cl [Example 329, 5-[5-[(1R)-1-(3,5-dichloro-4-pyridyl)ethoxy]-6-methoxy-1H-indazol-3-yl]-2-[3-(dimethyl-phosphoryl-methylamino)-3-methyl-azetidin-1-yl]pyridine-3-carbonitrile]	> 1000	200 to 1000	50 to 200	1 to 50	1 to 50	1 to 50	1 to 50	1 to 50	0.1 to 50	
COc1cc2[nH]nc(-c3cnc(N4CC(C)(N5CCS(=O)(=O)CC5)C4)c(C#N)c3)c2cc1O[C@H](C)c1c(Cl)cncc1Cl [Example 334, (R)-5-(5-(1-(3,5-dichloropyridin-4-yl)ethoxy)-6-methoxy-1H-indazol-3-yl)-2-(3-(1,1-dioxidothio-morpholino)-3-methylazetidin-1-yl)nicotinonitrile]	200 to 1000	50 to 200	0.1 to 50	1 to 50	1 to 50	1 to 50	1 to 50	1 to 50	0.1 to 50	
COc1cc2[nH]nc(-c3cnc(N4CC(C)(N5CC6CC(C5)O6)C4)c(C#N)c3)c2cc1O[C@H](C)c1c(Cl)cncc1Cl [Example 337, 2-(3-(6-oxa-3-aza-bicyclo[3.1.1]hep-tan-3-yl)-3-methylazetidin-1-yl)-5-(5-((R)-1-(3,5-dichloropyridin-4-yl)ethoxy)-6-methoxy-1H-indazol-3-yl)nicotinonitrile]	50 to 200	50 to 200	0.1 to 50	1 to 50	1 to 50	1 to 50	1 to 50	1 to 50	0.1 to 50	
COc1cc2[nH]nc(-c3cnc(N4CC(C)(N5C[C@H]6C[C@@H]5CO6)C4)c(C#N)c3)c2cc1O[C@H](C)c1c(Cl)cncc1Cl [Example 338, 2-(3-((1R,4R)-2-oxa-5-aza-bicyclo[2.2.1]hep-tan-5-yl)-3-methylazetidin-1-yl)-5-(5-((R)-1-(3,5-dichloropyridin-4-yl)ethoxy)-6-methoxy-1H-indazol-3-yl)nicotinonitrile]	50 to 200	50 to 200	0.1 to 50	1 to 50	1 to 50	1 to 50	1 to 50	1 to 50	0.1 to 50	
COc1cc2[nH]nc(-c3cnc(N4CC(C)(NCC5CC5)C4)nc3)c2cc1O[C@H](C)c1c(Cl)cncc1Cl [Example 339, (R)-N-(cyclopropyl-methyl)-1-(5-(5-(1-(3,5-dichloropyridin-4-yl)ethoxy)-6-methoxy-1H-indazol-3-yl)pyrimidin-2-yl)-3-methylazetidin-3-amine]	0.1 to 50	0.1 to 50	0.1 to 50	1 to 50	1 to 50	1 to 50	1 to 50	1 to 50	0.1 to 50	
